Experimental data published in BigSolDB 2.1.

O=C(O)Cc1ccc([N+](=O)[O-])cc1
solubility (mole fraction)
Conditions | 283.15 K | 288.15 K | 293.15 K | 298.15 K | 303.15 K | 308.15 K | 313.15 K | 318.15 K | 323.15 K | 328.15 K
in DMAc | 0.0895 | 0.1 | 0.114 | 0.131 | 0.149 | 0.169 | 0.191 | 0.216 | 0.24 | 0.271
in DMF | 0.161 | 0.178 | 0.2 | 0.225 | 0.251 | 0.28 | 0.311 | 0.342 | 0.377 | 0.417
in acetonitrile | 0.0193 | 0.0223 | 0.0266 | 0.0312 | 0.0375 | 0.0449 | 0.0535 | 0.0639 | 0.0761 | 0.0918
in cyclohexane | 1.2e-05 | 1.69e-05 | 2.3e-05 | 3.11e-05 | 4.12e-05 | 5.45e-05 | 7.11e-05 | 9e-05 | 0.000113 | 0.00014
in ethanol | 0.0758 | 0.0849 | 0.0979 | 0.111 | 0.128 | 0.148 | 0.17 | 0.196 | 0.223 | 0.254
in ethyl acetate | 0.0309 | 0.0352 | 0.041 | 0.0487 | 0.0576 | 0.0694 | 0.0823 | 0.098 | 0.116 | 0.137
in ethylene glycol | 0.0168 | 0.0185 | 0.0213 | 0.0254 | 0.0301 | 0.0361 | 0.0428 | 0.0503 | 0.0596 | 0.0723
in isobutanol | 0.025 | 0.0282 | 0.0323 | 0.0389 | 0.0464 | 0.0554 | 0.0658 | 0.0776 | 0.0917 | 0.11
in isopropanol | 0.028 | 0.031 | 0.0373 | 0.0455 | 0.0542 | 0.065 | 0.0768 | 0.0914 | 0.109 | 0.131
in methanol | 0.125 | 0.137 | 0.155 | 0.174 | 0.195 | 0.218 | 0.245 | 0.274 | 0.305 | 0.341
in n-butanol | 0.0498 | 0.0564 | 0.0653 | 0.0758 | 0.0877 | 0.101 | 0.117 | 0.135 | 0.156 | 0.178
in n-propanol | 0.0518 | 0.0589 | 0.0683 | 0.0784 | 0.0916 | 0.106 | 0.124 | 0.145 | 0.168 | 0.193
in water | 0.000141 | 0.00017 | 0.000209 | 0.000264 | 0.000336 | 0.000422 | 0.000528 | 0.000663 | 0.000816 | 0.00101
